Tests used:
[1] = test system: pTh17 cells; experiment: Induction of pTh17 cells in secondary lymphoid organs of CTX-treated animals; type: in vivo
Excerpt: The reasons for these differences were however unknown, and the inventors pursued their research to identify the factor(s) responsible for the immunogenic properties of the murine strain EH13144 and the human clones IGR4, IGR7 and IGR11, in order to derive new molecules or microorganisms useful in the treatment of cancer.

[2] = test system: autologous CD4+ T cells or CD8+ T cells; experiment: Blood T cell responses of breast cancer patients to monocytes stimulated with bacteria (IFN-γ, IL-10 release); type: cell-based, human
Description: FIG. 22. T cell responses against commensals in blood from breast cancer patients at diagnosis priori to chemotherapy. Autologous monocytes harvested from breast cancer patients were stimulated with distinct bacterial spp. and then incubated with autologous CD4+ T cells or CD8+ T cells to monitor IFN-γ and IL-10 release. (A) TH1/Tc1/Tr1 immune responses to E. hirae 13144. […] (B) TH1/Tc1/Tr1 immune responses to E. coli or TCR cross-linking. BC women display memory T cell responses against E. coli and respond to TCR cross-linking.

[3] = test system: E. gallinarum; experiment: Phage transmission from E. hirae to E. gallinarum in small intestine enteroids; design: species or system Enterococcus gallinarum; conditions: 1:1 ratio E. hirae / E. gallinarum on enteroids
Excerpt: . […] Also refer to FIG. 39.
Temperate bacteriophages are bacterial viruses that transfer virulence, antimicrobial resistance genes, and immunogenic sequences to new bacterial hosts (Weinbauer, 2004). The TMP protein, which contains a variable number of tandem repeats with highly conserved tryptophan and phenylalanine residues at fixed positions is encoded by the genome of Siphoviridae phages (Belcaid et al., 2011; Piuri and Hatfull, 2006). To analyze the capacity of E. hirae 13144 to contagiously disseminate the phage TMP sequence, we performed culturomic analyses of the ileal content from C57BL/6 mice subjected to oral gavage with E. hirae 13144 and systemic CTX therapy (FIG. 30C). […] Of note, none of the 90 colonies (mostly of E. gallinarum) isolated from naive mice harbored the TMP sequence (FIG. 39). Moreover, CTX plays a role in eliminating the E. gallinarum, allowing the niching and/or colonization of E. hirae in the small intestine, as shown in vitro in enteroid systems or in PCR of the ileal content (FIG. 30G and not shown). Importantly, incubation of small intestine enteroids with a balanced 1:1 ratio of E. hirae or E. gallinarum harbouring or not the phage respectively, lead to the transmission of the infectious/lytic phage to E. gallinarum by E. hirae in 9% of colonies at 6 hrs and 26% at 20 hrs (FIG. 30G).

[4] = test system: MCA205 cells with PSMB4 GSFARFRNI knock-in; experiment: Growth of Psmb4 knock-in MCA205 tumors under CTX +/- E. hirae 13144; type: in vivo, mice; conditions: L→F exchange in position 3, versus WT MCA205

Which results are given for “Enterococcus hirae strain 13144 [Peptide 13144]”?
capacity to induce pTh17 cells in secondary lymphoid organs [1]: significant capacity to induce pTh17 cells; BC patients who developed IL-10 producing memory CD4+ T cell responses ([2]; FIG. 22A): 52%; BC patients with CD4+ T cells exhibiting no reactivity to pulsed monocytes ([2]; FIG. 22A): 32%; BC patients at diagnosis exhibiting a blood TH1/Tc1 immune response ([2]; prior to chemotherapy): Less than 20%; colonies of E. gallinarum with transmitted phage ([3]; 6 hrs): 9%; colonies of E. gallinarum with transmitted phage ([3]; 20 hrs): 26%; anticancer effect on PSMB4 knock-in (GSFARFRNI) MCA205 tumors [4]: drastically blunted the anticancer effects

Reference: US12102672B2, “Immunogenic sequences from a phage tail length tape measure protein, bacteria expressing the same and their use in treating a cancer” (INSTITUT GUSTAVE ROUSSY, priority 2017, dated 2024)
